One series deals with urease (Canavalia ensiformis, UniProt P07374). Description: Urease inhibition assay (customized Berthelot assay). It is filed as biochemical. The following applies: for inhibition at 500 µM: read-out: Urease Inhibition, Inhibition (%). The protocol:
This enzyme assay is the customized form of the commonly known Berthelot assay ([23], [24]). […] The contents were pre-incubated at 37 °C for 5 min. 40 µL of urea stock solution (20 mM) was added to each well with incubation for 10 min at 37 °C. It is followed by the addition of 115 µL phenol hypochlorite reagents (freshly prepared by mixing 45 µL phenol with 70 µL of alkali) per well. For color development, incubation was carried out for further 10 min at 37 °C. The absorbance was measured at 625 nm. The percentage enzyme inhibition and IC50 values were calculated using the following formula:
inhibition%=Control-test/Control×100
Where, Control is the total enzyme activity without inhibitor and Test is the activity in the presence of test compound. IC50 values were calculated using the EZ–Fit Enzyme kinetics software (Perrella Scientific Inc. Amherst, US).
Statistical analysis was performed by Microsoft Excel 2010 for all the thrice measured values and the results are presented as mean ± SEM.

The nature of series [1]: Hemolytic activity (cytotoxicity through hemolysis). It is filed as cell-based. The following applies: bovine, red blood cell (erythrocyte) suspension, pH 7.4, 20 µL compound solution (10 mg/mL) in 180 µL RBCs suspension, room temperature, PBS negative control, Triton positive control. From the text: The erythrocytes separated diluted in phosphate buffer saline of pH 7.4 and a suspension was made.

Where two headings read alike, the source gives them in different places.

Sequence of urease (P07374 whole entry, looked up): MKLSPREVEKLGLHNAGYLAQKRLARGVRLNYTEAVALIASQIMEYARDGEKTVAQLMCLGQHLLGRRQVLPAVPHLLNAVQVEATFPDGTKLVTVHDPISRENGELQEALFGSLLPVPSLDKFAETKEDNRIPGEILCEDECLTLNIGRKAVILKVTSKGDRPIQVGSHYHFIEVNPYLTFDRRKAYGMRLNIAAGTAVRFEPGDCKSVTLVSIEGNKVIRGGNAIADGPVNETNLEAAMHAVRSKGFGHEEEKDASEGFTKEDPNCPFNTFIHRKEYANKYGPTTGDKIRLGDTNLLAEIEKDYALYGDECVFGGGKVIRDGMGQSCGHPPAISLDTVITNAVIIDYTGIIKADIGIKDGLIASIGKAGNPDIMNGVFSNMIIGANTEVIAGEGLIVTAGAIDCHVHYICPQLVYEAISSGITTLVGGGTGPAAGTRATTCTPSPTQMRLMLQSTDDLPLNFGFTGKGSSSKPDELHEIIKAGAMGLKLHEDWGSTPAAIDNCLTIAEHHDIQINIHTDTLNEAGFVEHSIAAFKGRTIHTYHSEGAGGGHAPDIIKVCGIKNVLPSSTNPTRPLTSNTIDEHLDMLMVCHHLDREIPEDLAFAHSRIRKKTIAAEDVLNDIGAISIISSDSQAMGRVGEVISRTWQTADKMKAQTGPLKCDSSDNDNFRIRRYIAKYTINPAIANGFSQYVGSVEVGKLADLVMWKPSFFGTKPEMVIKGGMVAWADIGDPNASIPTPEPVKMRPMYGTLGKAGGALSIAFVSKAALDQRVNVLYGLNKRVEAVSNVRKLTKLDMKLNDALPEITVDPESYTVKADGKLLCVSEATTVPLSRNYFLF

The compound `Nc1nc(Cc2nnc(SCCC(=O)Nc3ccccc3)o2)cs1` [Compound 7a, 3-({5-[(2-Amino-1,3-thiazol-4-yl)methyl]-1,3,4-oxadiazol-2-yl}sulfanyl)-N-phenylpropanamide] came in with a melting point of 190 to 191 °C. Further, at urease, it took 2450 ± 40 nM to reach half-maximal inhibition (IC50) and the inhibition at 500 µM was found to be 98.24 ± 0.08%. Moreover, in series [1], the hemolysis at 30 min, 1 mg/mL amounted to 11.5%.
On to `Cc1ccccc1NC(=O)CCSc1nnc(Cc2csc(N)n2)o1` [Compound 7b, 3-({5-[(2-Amino-1,3-thiazol-4-yl)methyl)-1,3,4-oxadiazol-2-yl}sulfanyl)-N-(2-methylphenyl)propanamide], for which, on urease, half-maximal inhibition (IC50) was put at 2640 ± 30 nM and the inhibition at 500 µM is 96.42 ± 0.02%. The hemolysis at 30 min, 1 mg/mL in series [1] came to 7.05%.
The corresponding values for `Cc1cccc(NC(=O)CCSc2nnc(Cc3csc(N)n3)o2)c1` [Compound 7c, 3-({5-[(2-Amino-1,3-thiazol-4-yl)methyl]-1,3,4-oxadiazol-2-yl}sulfanyl)-N-(3-methylphenyl)propanamide] are 1320 ± 20 nM, 98.52 ± 0.05% and 5.16%.
Regarding `Cc1ccc(NC(=O)CCSc2nnc(Cc3csc(N)n3)o2)cc1` [Compound 7d, 3-({5-[(2-Amino-1,3-thiazol-4-yl)methyl]-1,3,4-oxadiazol-2-yl}sulfanyl)-N-(4-methylphenyl)propanamide], on urease, the concentration for half-maximal inhibition (IC50) came out at 1750 ± 10 nM and the inhibition at 500 µM came out at 98.13 ± 0.02%. Moreover, the hemolysis at 30 min, 1 mg/mL in series [1] was 7.16%.
The corresponding values for `Cc1ccc(NC(=O)CCSc2nnc(Cc3csc(N)n3)o2)c(C)c1` [Compound 7e, 3-({5-[(2-Amino-1,3-thiazol-4-yl)methyl]-1,3,4-oxadiazol-2-yl}sulfanyl)-N-(2,4-dimethylphenyl)propanamide] are 1240 ± 10 nM, 98.19 ± 0.09% and 6.74%.
As for `Cc1ccc(C)c(NC(=O)CCSc2nnc(Cc3csc(N)n3)o2)c1` [Compound 7f, 3-({5-[(2-Amino-1,3-thiazol-4-yl)methyl]-1,3,4-oxadiazol-2-yl}sulfanyl)-N-(2,5-dimethylphenyl)propanamide], on urease, half-maximal inhibition (IC50) required 5180 ± 60 nM and the inhibition at 500 µM was found to be 96.26 ± 0.03%. This compound also displayed a hemolysis at 30 min, 1 mg/mL in series [1] of 6.42%.
Consider `Cc1cccc(C)c1NC(=O)CCSc1nnc(Cc2csc(N)n2)o1` [Compound 7g, 3-({5-[(2-Amino-1,3-thiazol-4-yl)methyl]-1,3,4-oxadiazol-2-yl}sulfanyl)-N-(2,6-dimethylphenyl)propanamide], for which the melting point fell in the range of 149 to 150 °C. At urease, the IC50 turned out to be 2630 ± 30 nM and the inhibition at 500 µM came out at 98.52 ± 0.06%. Moreover, in series [1], the hemolysis at 30 min, 1 mg/mL turned out to be 7.37%.
The corresponding values for `Cc1ccc(NC(=O)CCSc2nnc(Cc3csc(N)n3)o2)cc1C` [Compound 7h, 3-({5-[(2-Amino-1,3-thiazol-4-yl)methyl]-1,3,4-oxadiazol-2-yl}sulfanyl)-N-(3,4-dimethylphenyl)propanamide] are 177 to 178 °C, 2560 ± 20 nM, 97.28 ± 0.02% and 5.79%.
With `Cc1cc(C)cc(NC(=O)CCSc2nnc(Cc3csc(N)n3)o2)c1` [Compound 7i, 3-({5-[(2-Amino-1,3-thiazol-4-yl)methyl]-1,3,4-oxadiazol-2-yl}sulfanyl)-N-(3,5-dimethylphenyl)propanamide], at urease, the IC50 is 3620 ± 10 nM and the inhibition at 500 µM was found to be 97.31 ± 0.08%. Besides, the hemolysis at 30 min, 1 mg/mL in series [1] was found to be 5.26%.
As for `CCc1ccccc1NC(=O)CCSc1nnc(Cc2csc(N)n2)o1` [Compound 7j, 3-({5-[(2-Amino-1,3-thiazol-4-yl)methyl]-1,3,4-oxadiazol-2-yl}sulfanyl)-N-(2-ethylphenyl)propanamide], the melting point was in the range of 198 to 199 °C. Further, at urease, the IC50 stood at 2130 ± 10 nM and the inhibition at 500 µM worked out at 98.12 ± 0.03%. The hemolysis at 30 min, 1 mg/mL in series [1] is 6.63%.
For `CCc1ccc(NC(=O)CCSc2nnc(Cc3csc(N)n3)o2)cc1` [Compound 7k, 3-({5-[(2-amino-1,3-thiazol-4-yl)methyl]-1,3,4-oxadiazol-2-yl}sulfanyl)-N-(4-ethylphenyl)propanamide], at urease, the IC50 was determined as 2850 ± 50 nM and the inhibition at 500 µM was 97.43 ± 0.07%. This compound also displayed a hemolysis at 30 min, 1 mg/mL in series [1] of 7.16%.
The matching figures for `CCOc1ccc(NC(=O)CCSc2nnc(Cc3csc(N)n3)o2)cc1` [Compound 7l, 3-({5-[(2-Amino-1,3-thiazol-4-yl)methyl]-1,3,4-oxadiazol-2-yl}sulfanyl)-N-(4-ethoxyphenyl)propanamide]: 2170 ± 20 nM, 97.25 ± 0.04% and 8.11%.
Turning to `NC(N)=S` [Thiourea, reference compound], the “Urease Inhibition, Inhibition (%)” value at urease (at 0.5 mM, mean ± SEM, n = 3) is “Thiourea 98.12 ± 0.18%”. Further, the IC50 on urease (mean ± SEM, n = 3, EZ-Fit Enzyme kinetics software, read-out: Urease Inhibition, IC50) turned out to be 21100 nM.
Compound `CC(C)(C)CC(C)(C)c1ccc(OCCO)cc1` [Triton-X, reference compound] yielded a hemolysis at 30 min, 1 mg/mL in series [1] of 89%.

For orientation: IC50 means the concentration needed to halve the response being measured. By inhibition is commonly meant the drop in the measured response relative to a control, in per cent. Broadly, the melting point is the temperature, or range, at which the solid turns liquid.

These data come from publication PMC7462494, “Novel Bi-heterocycles as Potent Inhibitors of Urease and Less Cytotoxic Agents: 3-({5-((2-Amino-1,3-thiazol-4-yl)methyl)-1,3,4-oxadiazol-2-yl}sulfanyl)-N-(un/substituted-phenyl)propanamides” (Iranian Journal of Pharmaceutical Research : IJPR, 2020).
